Source: US20150105252A1, “SUBSTITUTED PYRAZOLES AS HERBICIDES” (E I DU PONT DE NEMOURS AND COMPANY, priority 2013, published 2015)

Assays:
[1] = system: pigweed; test: Test A postemergence; assay type: in vivo, Amaranthus retroflexus; details: Postemergence
Outline: (§1)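 Pre- and postemergence greenhouse test; loam+sand; cpd in non-phytotox. solvent/surfactant; post at 1–2 leaf, 2–10 cm; visual score ~10 d, 0 = none, 100 = complete control.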

[2] = system: common ragweed; test: Test A preemergence; assay type: in vivo, Ambrosia elation; details: for Common Ragweed plant response rating (0 to 100 scale): 125 g ai/ha, visual injury approx. 10 days after treatment; for Common Ragweed plant response rating: 500 g ai/ha, visual injury after approx. 10 days, 0 to 100 scale (0 no effect, 100 complete control)
Outline: as §1

[3] = system: kochia; test: Test A preemergence; assay type: in vivo, Kochia scoparia; details: 125 g ai/ha, visual injury approx. 10 days after treatment
Outline: as §1

[4] = system: pigweed; test: Test A preemergence; assay type: in vivo, Amaranthus retroflexus; details: preemergence, 125 g ai/ha, visual injury approx. 10 days after treatment
Outline: as §1

[5] = system: galium; test: Test A postemergence; assay type: in vivo, Galium aparine; details: Postemergence
From the text: (§2) Seeds of plant species selected from barnyardgrass (Echinochloa crus-galli), kochia (Kochia scoparia), common ragweed (Ambrosia elation), Italian ryegrass (Lolium multiflorum), crabgrass, large (large crabgrass, Digitaria sanguinalis), foxtail, giant (giant foxtail, Setaria faberii), morningglory (Ipomoea spp.), pigweed (redroot pigweed, Amaranthus retroflexus), velvetleaf (Abutilon theophrasti), wheat (Triticum aestivum), and corn (Zea mays) were planted into a blend of loam soil and sand and treated preemergence with a directed soil spray using test chemicals formulated in a non-phytotoxic solvent mixture which included a surfactant.
(§3) At the same time, plants selected from these crop and weed species and also blackgrass (Alopecurus myosuroides), and galium (catchweed bedstraw, Galium aparine) were planted in pots containing the same blend of loam soil and sand and treated with postemergence applications of test chemicals formulated in the same manner. Plants ranged in height from 2 to 10 cm and were in the one- to two-leaf stage for the postemergence treatment. Treated plants and untreated controls were maintained in a greenhouse for approximately 10 days, after which time all treated plants were compared to untreated controls and visually evaluated for injury. Plant response ratings, summarized in Table A, are based on a 0 to 100 scale where 0 is no effect and 100 is complete control. A dash (-) response means no test result.

[6] = system: sedge, umbrella; test: Test B flood; assay type: in vivo, Cyperus difformis; details: 250 g ai/ha, visual rating on 0 to 100 scale (0 no effect, 100 complete control), 13 to 15 days
Outline: (§4)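 Each compound is applied to the floodwater of pots holding 2-leaf seedlings, water standing 3 cm over the soil throughout. Plants stay in a greenhouse 13 to 15 days before visual scoring against controls from 0 (no effect) to 100 (complete control).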

[7] = system: kochia; test: Test A postemergence; assay type: in vivo, Kochia scoparia; details: Postemergence
From the text: as §2, §3

[8] = system: Italian ryegrass; test: Test A preemergence; assay type: in vivo, Lolium multiflorum; details: for Italian Ryegrass plant response rating (0 to 100 scale): 125 g ai/ha, visual injury approx. 10 days after treatment; for Italian Ryegrass plant response rating: 500 g ai/ha, visual injury after approx. 10 days, 0 to 100 scale (0 no effect, 100 complete control)
From the text: as §2, §3

[9] = system: barnyardgrass; test: Test B flood; assay type: in vivo, Echinochloa crus-galli; details: 250 g ai/ha, visual rating on 0 to 100 scale (0 no effect, 100 complete control), 13 to 15 days
Outline: as §4

[10] = system: barnyardgrass; test: Test A postemergence; assay type: in vivo, Echinochloa crus-galli
Outline: as §1

[11] = system: rice; test: Test B flood; assay type: in vivo, Oryza sativa; details: 250 g ai/ha, visual rating on 0 to 100 scale (0 no effect, 100 complete control), 13 to 15 days
Outline: as §4

[12] = system: foxtail, giant; test: Test A preemergence; assay type: in vivo, Setaria faberii; details: preemergence; for Foxtail, Giant plant response rating (0 to 100 scale): 125 g ai/ha, visual injury approx. 10 days after treatment; for Foxtail, Giant plant response rating: 500 g ai/ha, visual injury after approx. 10 days, 0 to 100 scale (0 no effect, 100 complete control)
Outline: as §1

[13] = system: common ragweed; test: Test A postemergence; assay type: in vivo, Ambrosia elation
From the text: as §2, §3

[14] = system: barnyardgrass; test: Test A preemergence; assay type: in vivo, Echinochloa crus-galli; details: preemergence; for Barnyardgrass plant response rating (0 to 100 scale, 0 is no effect, 100 is complete control): 125 g ai/ha, visual injury approx. 10 days after treatment; for Barnyardgrass plant response rating: 500 g ai/ha, visual injury after approx. 10 days, 0 to 100 scale (0 no effect, 100 complete control)
Outline: as §1

[15] = system: blackgrass; test: Test A postemergence; assay type: in vivo, Alopecurus myosuroides
From the text: as §2, §3

[16] = system: corn; test: Test A postemergence; assay type: in vivo, Zea mays
Outline: as §1

[17] = system: foxtail, giant; test: Test A postemergence; assay type: in vivo, Setaria faberii
Outline: as §1

[18] = system: ducksalad; test: Test B flood; assay type: in vivo, Heteranthera limosa; details: 250 g ai/ha, visual rating on 0 to 100 scale (0 no effect, 100 complete control), 13 to 15 days
Outline: as §4

[19] = system: wheat; test: Test A postemergence; assay type: in vivo, Triticum aestivum; details: Postemergence
Outline: as §1

[20] = system: Italian ryegrass; test: Test A postemergence; assay type: in vivo, Lolium multiflorum; details: Postemergence
Outline: as §1

[21] = 125 g ai/ha, 0 to 100 scale, 0 no effect, 100 complete control
[22] = 500 g ai/ha, 0 to 100 scale (0 no effect, 100 complete control)
[23] = Postemergence, 500 g ai/ha, 0 to 100 scale (0 no effect, 100 complete control)
[24] = postemergence, 125 g ai/ha, about 10 days, visual rating on 0 to 100 scale (0 no effect, 100 complete control)
[25] = Postemergence, 125 g ai/ha, 0 to 100 scale, 0 no effect, 100 complete control

`CCCNC(=O)c1cc(CC)n(Cc2cc(C(F)(F)F)nn2C(C)C)n1` [Compound 209] was tested, and the “Pigweed plant response rating” value [1, 21] was 0, the “Pigweed plant response rating” value [1, 22] was 0 and the “Common Ragweed plant response rating (0 to 100 scale)” value [2] was 0. The “Common Ragweed plant response rating” value [2] was 0, the “Kochia plant response rating (0 to 100 scale)” value [3] was 0 and the “Pigweed plant response rating (0 to 100 scale)” value [4] was 0. The “Galium plant response rating” value [5, 21] was 0, the “Galium plant response rating” value [5, 22] was 0 and the “Plant response rating, Sedge, Umbrella” value [6] was 0. The “Kochia plant response rating” value [7, 21] was 0, the “Kochia plant response rating” value [7, 22] was 0 and the “Italian Ryegrass plant response rating (0 to 100 scale)” value [8] was 0. For the same compound, the “Italian Ryegrass plant response rating” value [8] was 0, the “Plant response rating, Barnyardgrass” value [9] was 0 and the “Barnyardgrass plant response rating” value [10, 23] was 0. The “Barnyardgrass plant response rating” value [10, 24] was 0, the “Plant response rating, Rice” value [11] was 0 and the “Foxtail, Giant plant response rating (0 to 100 scale)” value [12] was 0. The “Foxtail, Giant plant response rating” value [12] was 0, the “Common Ragweed plant response rating” value [13, 23] was 0 and the “Common Ragweed plant response rating” value [13, 24] was 0. For the same compound, the “Barnyardgrass plant response rating (0 to 100 scale, 0 is no effect, 100 is complete control)” value [14] was 0, the “Barnyardgrass plant response rating” value [14] was 0 and the “Blackgrass plant response rating” value [15, 23] was 0. The “Blackgrass plant response rating” value [15, 24] was 0, the “Corn plant response rating” value [16, 23] was 0 and the “Corn plant response rating” value [16, 24] was 0. The “Foxtail, Giant plant response rating” value [17, 23] was 0, the “Foxtail, Giant plant response rating” value [17, 24] was 0 and the “Plant response rating, Ducksalad” value [18] was 0. For the same compound, the “Wheat plant response rating” value [19, 21] was 0, the “Wheat plant response rating” value [19, 22] was 0 and the “Italian Ryegrass plant response rating” value [20, 21] was 0. The “Italian Ryegrass plant response rating” value [20, 22] was 0.
`CCc1cc(C(=O)NC(C)C)nn1Cc1cc(C(F)(F)F)nn1C(C)C` [Compound 210] was tested, and the “Pigweed plant response rating” value [1, 21] was 0, the “Pigweed plant response rating” value [1, 22] was 20 and the “Common Ragweed plant response rating (0 to 100 scale)” value [2] was 0. The “Common Ragweed plant response rating” value [2] was 0, the “Kochia plant response rating (0 to 100 scale)” value [3] was 0 and the “Pigweed plant response rating (0 to 100 scale)” value [4] was 0. The “Galium plant response rating” value [5, 21] was 0, the “Galium plant response rating” value [5, 22] was 20 and the “Plant response rating, Sedge, Umbrella” value [6] was 0. The “Kochia plant response rating” value [7, 21] was 10, the “Kochia plant response rating” value [7, 22] was 20 and the “Italian Ryegrass plant response rating (0 to 100 scale)” value [8] was 0. For the same compound, the “Italian Ryegrass plant response rating” value [8] was 0, the “Plant response rating, Barnyardgrass” value [9] was 0 and the “Barnyardgrass plant response rating” value [10, 25] was 0. For the same compound, the “Barnyardgrass plant response rating” value [10, 23] was 0, the “Plant response rating, Rice” value [11] was 0 and the “Foxtail, Giant plant response rating (0 to 100 scale)” value [12] was 0. The “Foxtail, Giant plant response rating” value [12] was 0, the “Common Ragweed plant response rating” value [13, 25] was 0 and the “Common Ragweed plant response rating” value [13, 23] was 0. The “Barnyardgrass plant response rating (0 to 100 scale, 0 is no effect, 100 is complete control)” value [14] was 0, the “Barnyardgrass plant response rating” value [14] was 0 and the “Blackgrass plant response rating” value [15, 25] was 0. The “Blackgrass plant response rating” value [15, 23] was 0, the “Corn plant response rating” value [16, 25] was 0 and the “Corn plant response rating” value [16, 23] was 0. For the same compound, the “Foxtail, Giant plant response rating” value [17, 25] was 0, the “Foxtail, Giant plant response rating” value [17, 23] was 0 and the “Plant response rating, Ducksalad” value [18] was 0. For the same compound, the “Wheat plant response rating” value [19, 21] was 0, the “Wheat plant response rating” value [19, 22] was 0 and the “Italian Ryegrass plant response rating” value [20, 21] was 0. For the same compound, the “Italian Ryegrass plant response rating” value [20, 22] was 0.
